ChEMBL document CHEMBL6115041, “Discovery of AIC263282, a Hepatitis B Virus Capsid Assembly Modulator Ready for Candidate Profiling” (J Med Chem, 2025)
pEC50, pIC50: −log10 of the molar value. ≈ marks a conversion by molar mass, not a printed value.

Columns and labels:
Hepatitis B virus = assay: Antiviral activity against HBV infected in human HePAD38 cells measured after 6 days by qPCR analysis; assay type: functional, organism-based; settings: HePAD38, 144 h
[1] = Metabolic stability in mouse liver microsome assessed as liver blood flow by HPLC analysis relative to control; assay type: ADME; settings: microsomes
[2] = Kinetic solubility of compound; assay type: physicochemical
[3] = Cytotoxicity against human HePAD38 cells measured after 6 days by prestoblue reagent based analysis; assay type: toxicity, cell-based; settings: time 6 day
[4] = target: Voltage-gated inwardly rectifying potassium channel KCNH2 (Homo sapiens, UniProt Q12809); assay: Inhibition of human ERG by patch clamp assay; assay type: toxicity
Chain of Voltage-gated inwardly rectifying potassium channel KCNH2 (Q12809 whole entry): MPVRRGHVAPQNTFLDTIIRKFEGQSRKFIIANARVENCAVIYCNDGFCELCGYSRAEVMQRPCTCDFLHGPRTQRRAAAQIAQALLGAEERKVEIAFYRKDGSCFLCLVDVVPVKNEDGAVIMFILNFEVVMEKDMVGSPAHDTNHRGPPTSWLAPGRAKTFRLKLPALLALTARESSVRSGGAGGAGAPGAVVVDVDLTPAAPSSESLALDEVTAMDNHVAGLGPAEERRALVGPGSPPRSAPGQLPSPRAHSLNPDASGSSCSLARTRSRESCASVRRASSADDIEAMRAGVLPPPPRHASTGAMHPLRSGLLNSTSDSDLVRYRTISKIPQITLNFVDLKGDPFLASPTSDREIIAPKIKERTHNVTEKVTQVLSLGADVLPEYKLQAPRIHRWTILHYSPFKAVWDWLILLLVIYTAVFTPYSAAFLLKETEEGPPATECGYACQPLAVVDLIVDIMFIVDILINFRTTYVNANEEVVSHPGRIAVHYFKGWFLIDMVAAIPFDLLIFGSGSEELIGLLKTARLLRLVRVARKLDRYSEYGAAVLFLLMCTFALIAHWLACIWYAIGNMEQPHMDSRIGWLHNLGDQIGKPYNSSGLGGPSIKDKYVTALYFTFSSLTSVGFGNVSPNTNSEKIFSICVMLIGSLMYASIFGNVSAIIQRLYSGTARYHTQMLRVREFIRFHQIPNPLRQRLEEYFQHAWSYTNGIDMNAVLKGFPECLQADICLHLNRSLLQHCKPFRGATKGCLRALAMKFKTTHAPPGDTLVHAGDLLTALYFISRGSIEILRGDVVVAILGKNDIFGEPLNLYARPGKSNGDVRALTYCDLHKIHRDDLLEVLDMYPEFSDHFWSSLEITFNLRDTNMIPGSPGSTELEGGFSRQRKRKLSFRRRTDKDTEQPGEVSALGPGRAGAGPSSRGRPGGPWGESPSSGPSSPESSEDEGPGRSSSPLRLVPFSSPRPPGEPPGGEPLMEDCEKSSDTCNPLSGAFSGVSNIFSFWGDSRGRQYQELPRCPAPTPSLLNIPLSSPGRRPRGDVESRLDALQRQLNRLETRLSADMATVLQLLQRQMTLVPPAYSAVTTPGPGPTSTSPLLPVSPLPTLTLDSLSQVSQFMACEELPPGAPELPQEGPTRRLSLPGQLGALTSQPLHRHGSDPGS

hERG = assay: Selectivity ratio of IC50 for human ERG to EC50 for Antiviral activity against HBV infected in human HePAD38 cells; assay type: toxicity, cell-based; settings: HePAD38 cells infected with HBV (for the EC50), read-out: Ratio IC50/EC50

SMILES	pEC50 (Hepatitis B virus)	Kinetic_solubility [2]	also measured
CC1(NC(=O)C(=O)N2CCN(C(=O)c3cc4cc(F)c(F)cc4[nH]3)CC2)CS(=O)(=O)C1	6.62	Not_determined(Insoluble)	CC50 at 144 h [3]: > 10000 nM
C[C@@H](NC(=O)C(=O)N1CCN(C(=O)/C=C/c2c(N)cc(F)cc2F)CC1)C(F)(F)F	7.28		
CC1(NC(=O)C(=O)N2CCN(C(=O)c3cc4cc(F)c(F)cc4[nH]3)CC2)COC1	7.28		
C[C@H]1CN(C(=O)C(=O)NC2(C)CCOCC2)CCN1C(=O)c1cc2cc(F)c(F)cc2[nH]1	7.22		
Cc1noc(C2(NC(=O)C(=O)N3CCN(C(=O)c4cc5c(F)c(F)c(F)cc5[nH]4)CC3)CC(F)(F)C2)n1	7.55	Not_determined(Insoluble)	
CN(C)C(=O)C1(NC(=O)C(=O)N2CCN(C(=O)c3cc4cc(F)c(F)cc4[nH]3)CC2)CC(F)(F)C1	6.80	Not_determined(Insoluble)	CC50 at 144 h [3]: > 32000 nM
Cc1noc(C2(NC(=O)C(=O)N3CCN(C(=O)c4cc5c(Cl)cccc5[nH]4)CC3)CC(F)(F)C2)n1	7.29	Not_determined(Insoluble)	
CC1(NC(=O)C(=O)N2CCN(C(=O)c3cc4cc(F)c(F)cc4[nH]3)CC2)CCC1	7.47		
O=C(NC1(C(F)(F)F)CC1)C(=O)N1CCN(C(=O)c2cc3cc(F)c(F)cc3[nH]2)CC1	7.59	Not_determined(Insoluble)	CC50 at 144 h [3]: > 10000 nM
CC1(NC(=O)C(=O)N2CCN(C(=O)c3cc4cc(F)c(F)cc4[nH]3)CC2)CCOCC1	7.52		
Cc1noc(C2(NC(=O)C(=O)N3CCN(C(=O)c4cc5ccc(Cl)cc5[nH]4)CC3)CC(F)(F)C2)n1	7.04	Not_determined(Insoluble)	
Cc1noc(C2(NC(=O)C(=O)N3CCN(C(=O)c4cc5cc(F)c(Cl)cc5[nH]4)CC3)CC(F)(F)C2)n1	7.55	Not_determined(Insoluble)	
C[C@@H]1CN(C(=O)C(=O)NC2(C(F)(F)F)COC2)CCN1C(=O)c1cc2cc(F)c(F)cc2[nH]1			pIC50 [4]: 5.01; selectivity ratio (hERG): 653
O=C(NC1(c2c[nH]nn2)CC(F)(F)C1)C(=O)N1CCN(C(=O)c2cc3cc(F)c(F)cc3[nH]2)CC1	7.27		
Cc1noc(C2(NC(=O)C(=O)N3CCN(C(=O)c4cc5ccccc5[nH]4)CC3)CC(F)(F)C2)n1	6.85	Not_determined(Insoluble)	
C[C@@H](NC(=O)C(=O)N1CCN(C(=O)c2cc3cc(F)c(F)cc3[nH]2)CC1)C(F)(F)F	6.90		

More lines, in order of rising pEC50 (Hepatitis B virus), values ahead:

pEC50 (Hepatitis B virus)	Kinetic_solubility [2]	SMILES	also measured
7.62		O=C(NC1(c2ccccn2)CCC1)C(=O)N1CCN(C(=O)c2cc3cc(F)c(F)cc3[nH]2)CC1	LBF [1]: 43%; solubility kinetic ([2]; read-out: Kinetic_solubility): 79 µM (≈ 36.9 µg/mL); CC50 at 144 h [3]: > 10000 nM
7.64	Not_determined(Insoluble)	Cc1noc(C2(NC(=O)C(=O)N3CCN(C(=O)c4cc5c(F)c(F)ccc5[nH]4)CC3)CC(F)(F)C2)n1	
7.72		CCc1cc(F)cc2[nH]c(C(=O)N3CCN(C(=O)C(=O)NC4(C)COC4)CC3)cc12	
7.74		O=C(NC1(C(F)(F)F)CCOCC1)C(=O)N1CCN(C(=O)c2cc3cc(F)c(F)cc3[nH]2)CC1	
7.74	Not_determined(Insoluble)	Cc1noc(C2(NC(=O)C(=O)N3CCN(C(=O)c4cc5c(Cl)c(F)ccc5[nH]4)CC3)CC(F)(F)C2)n1	LBF [1]: 44%
7.85	Not_determined(Insoluble)	O=C(NC1(C(F)(F)F)CCOCC1)C(=O)N1CCN(C(=O)c2cc3c(Cl)cc(F)cc3[nH]2)CC1	
7.89		Cc1noc(C2(NC(=O)C(=O)N3CCN(C(=O)c4cc5cc(F)c(F)cc5[nH]4)CC3)CC(F)(F)C2)n1	
7.92	Not_determined(Insoluble)	Cc1cc(F)cc2[nH]c(C(=O)N3CCN(C(=O)C(=O)NC4(C(F)(F)F)CCOCC4)CC3)cc12	
8.00		CCc1cc(F)cc2[nH]c(C(=O)N3CCN(C(=O)C(=O)NC4(c5nc(C)no5)CC(F)(F)C4)CC3)cc12	
8.01		CC1(NC(=O)C(=O)N2CCN(C(=O)c3cc4cc(F)c(F)cc4[nH]3)CC2)CC(F)(F)C1	
8.12		C[C@@H]1CN(C(=O)C(=O)NC2(C)CCOCC2)CCN1C(=O)c1cc2cc(F)c(F)cc2[nH]1	
8.12		O=C(NC1(c2cccnc2)CCC1)C(=O)N1CCN(C(=O)c2cc3cc(F)c(F)cc3[nH]2)CC1	
8.15		CCc1cc(F)cc2[nH]c(C(=O)N3CCN(C(=O)C(=O)NC4(c5ncccn5)COC4)C[C@H]3C)cc12	
8.21		CCc1cc(F)cc2[nH]c(C(=O)N3CCN(C(=O)C(=O)NC4(C(F)(F)F)COC4)CC3)cc12	
8.42		CCc1cc(F)cc2[nH]c(C(=O)N3CCN(C(=O)C(=O)NC4(C)COC4)C[C@H]3C)cc12	
8.54		CCc1cc(F)cc2[nH]c(C(=O)N3CCN(C(=O)C(=O)NC4(c5nc(C)no5)COC4)C[C@H]3C)cc12	
8.60		CCc1cc(F)cc2[nH]c(C(=O)N3CCN(C(=O)C(=O)NC4(c5cnc(OC)cn5)COC4)C[C@H]3C)cc12	
8.62	Not_determined(Insoluble)	CCc1cc(F)cc2[nH]c(C(=O)N3CCN(C(=O)C(=O)NC4(C(F)(F)F)CCOCC4)CC3)cc12	LBF [1]: 56%
8.62		CCc1cc(F)cc2[nH]c(C(=O)N3CCN(C(=O)C(=O)NC4(c5cnn(C)c5)COC4)C[C@H]3C)cc12	
8.62		CCc1cc(F)cc2[nH]c(C(=O)N3CCN(C(=O)C(=O)NC4(c5ccncc5F)COC4)C[C@H]3C)cc12	
8.66		CCc1cc(F)cc2[nH]c(C(=O)N3CCN(C(=O)C(=O)NC4(C(F)(F)F)CCOCC4)C[C@H]3C)cc12	
8.89	Not_determined(Insoluble)	CCc1cc(F)cc2[nH]c(C(=O)N3CCN(C(=O)C(=O)NC4(c5ccc(C)nc5)COC4)C[C@H]3C)cc12	LBF [1]: 93%
9.10		O=C(NC1(c2ccncc2)CCC1)C(=O)N1CCN(C(=O)c2cc3cc(F)c(F)cc3[nH]2)CC1	
